Here are results for seven molecules from patent US20120101087A1, “Generation of Combinatorial Synthetic Libraries and Screening for Novel Proadhesins and Nonadhesins” (priority 2007, published 2012).

For orientation: IC50 means the concentration at which inhibition is half-maximal. What is called IC90 is the concentration at which the effect reaches the 90% level.

SMILES strings stand for the structures. Read-outs that look alike come from different tables or passages of the source.

In one series the test system is Colletotrichum acutatum. In words: Petri dish assay for activity against Colletotrichum acutatum (spore adhesion to polystyrene).
In series [1] the test system is MRSA Staphylococcus aureus. Put plainly: Anti-adhesion assay for MRSA Staphylococcus aureus. The series is classed as cell-based. The settings on record: for IC50: read-out: IC50 anti-adhesion MRSA Staphylococcus aureus; for ICMAX (μM), IC100: maximal inhibition given as IC100.
A further series concerns P. aerug. Put plainly: Effectiveness towards P. aerug. (cystic fibrosis application, IC50 % wt/vol). The series is classed as cell-based, Pseudomonas aeruginosa.
The subject of a further series is S. aureus. In words: Effectiveness towards S. aureus (IC50 % wt/vol). It is filed as cell-based, Staphylococcus aureus.
The nature of series [2]: Solubility in water (solubility classes of screening compounds). It is filed as physicochemical.
Series [3] has as its system Dengue 2 (DENV-2 strain NG-2). Put plainly: microbe, parasite or virus in culture. It is filed as cell-based, Dengue virus.
The subject of a further series is Staphylococcus areus. In words: Direct binding assay (DART TOF-MS) to Staphylococcus aureus. The settings on record: FIG. 7.
The next series relates to Dengue virus. Put plainly: Direct binding assay (DART TOF-MS) to Dengue virus. As to conditions: FIG. 6. From the text: The virus particles were collected and fixed in 100% (USP) ethanol prior to DART TOF-MS analysis. The closed end of a borosilicate glass capillary tube was immersed in the virion solution and passed through the DART He plasma to obtain mass spectra of virion surface-bound chemistries. […] The same conditions were used to assess the binding of composition here to bacterial species.

On to `CN(CCCNC(=O)c1ccc(O)cc1)CCCNC(=O)c1ccc2cc(O)ccc2c1` [III], for which the “IC50 (% wt/vol), pathogen C. acut.” value with Colletotrichum acutatum is on record as under 0.005 % wt/vol. In addition, in series [1] (Staphylococcus aureus, MRSA), the IC50 is 7.1 µM. Moreover, the “ICMAX (μM), IC100” value in series [1] (value is the concentration) is “IC100 - 100 μM”. Further, the “IC50 (% wt/vol), pathogen P. aerug.” value in the series with P. aerug. worked out at 0.001 % wt/vol. Further, the “IC50 (% wt/vol), pathogen S. aure.” value in the series with S. aureus was under 0.017 % wt/vol.
`CNC(=O)C(Cc1ccc(OS(C)(=O)=O)cc1)NC(=O)COCC(=O)Nc1cccc(OS(C)(=O)=O)c1` (stereo not shown) [Compound A02]: the Solubility in water entry in series [2] is given as “insoluble in water”.
On to `O=C(c1ccc(O)cc1)N1CCCN(C(=O)c2ccc3cc(O)ccc3c2)CC1` [VI], for which the “IC50 (% wt/vol), pathogen C. acut.” value with Colletotrichum acutatum is listed as under 0.005 % wt/vol. The IC50 in series [3] (Dengue virus, DENV2, LLC-MK2, read-out: IC50 Dengue 2, anti-infection (adhesion)) came out at 114 µM; in series [1] (Staphylococcus aureus, MRSA), 2.5 µM. Also, the “ICMAX (μM), IC100” value in series [1] (value is the concentration) is given as “IC100 - 10 μM”. In addition, in the series on P. aerug., the “IC50 (% wt/vol), pathogen P. aerug.” value is on record as under 0.005 % wt/vol. Further, the “IC50 (% wt/vol), pathogen S. aure.” value in the series with S. aureus is under 0.017 % wt/vol.
As for `O=C(O)/C=C/c1ccc(OS(=O)(=O)O)cc1` [Zosteric Acid, reference compound], the IC50 in series [3] (from graph of % inhibition versus concentration, read-out: IC50 Dengue 2, anti-infection (adhesion)) amounted to 1190 µM; in series [1], 24.8 µM. Also, the “ICMAX (μM), IC100” value in series [1] (value is the concentration) was “IC100 - 90 μM”.
Turning to `CNC(=O)C(Cc1ccc(OS(=O)(=O)C(F)(F)F)cc1)NC(=O)COCC(=O)Nc1cccc(OS(=O)(=O)C(F)(F)F)c1` (stereo not shown) [Compound B02], the Solubility in water entry in series [2] is reported as “insoluble in water”.
With `CN(CCCNC(=O)c1ccc(O)cc1)CCCNC(=O)c1ccc(O)cc1` [IV], the IC50 in series [1] (Staphylococcus aureus, MRSA) is 1.5 µM. Also, the IC90 in series [1] (Staphylococcus aureus, MRSA, read-out: ICMAX (μM), IC90) stood at 10 µM.
In the case of `CCN(CCOC(=O)/C=C/c1ccc(O)cc1)Cc1cc(Cl)ccc1O` [Compound I], the “Direct binding to Staphylococcus areus (DART-MS peak)” value in the series on Staphylococcus areus was “binds to the bacteria”. Besides, in the series with Colletotrichum acutatum, the “IC50 (% wt/vol), pathogen C. acut.” value was 0.004 % wt/vol. In addition, in series [3] (FIG. 6, virions from direct binding assay), the “Dengue infection when compound is bound to virus” value is listed as “inhibited”. For the same molecule, the “Adhesion of Staphylococcus areus when compound is bound” value in series [1] (FIG. 7) is “blocks adhesion”. In series [1] (maximal inhibition printed as IC70, value is the concentration), the “ICMAX (μM), IC70” value is “IC70 - 120 μM”. Also, in the series on P. aerug., the “IC50 (% wt/vol), pathogen P. aerug.” value is listed as 0.001 % wt/vol. In addition, the “Direct binding to Dengue virus (DART-MS peak)” value in the series with Dengue virus is listed as “direct binding”.
